The record followed here is patent publication US9428499B2, “Heterocyclyl compounds as MEK inhibitors” (LUPIN LIMITED, priority 2012, dated 2016).

This assay has as its system ERK phosphorylation. Put plainly: Analysis of ERK phosphorylation (Alphascreen SureFire Phospho-ERK 1/2). It is filed as cell-based, human and mouse. Particulars: cells treated for 1 h; human melanoma cells, human and mouse colon cancer cells; read-out: Minimum concentration (nM) required for ≧80% inhibition of pERK. As for the experimental part: This assay was carried out with human melanoma cells, human and mouse colon cancer cells. Cells were treated for 1 h with various concentrations of test compounds. ERK phosphorylation analysis was performed using the Alphascreen SureFire Phospho-ERK 1/2 Kit (Perkin Elmer), by following the manufacturer's instructions. % inhibition of ERK phosphorylation was determined as: 100−{(RFU test−RFU lysis buffer control)/(RFU vehicle treated control−RFU lysis buffer control)}×100. Percentage inhibition at concentrations of 0.01 nM, 0.03 nM, 0.1-0.9 nM, 1 nM to 3 nM, 4-100 nM, and >100 nM, for the stated examples is setworth here. The percentage inhibition at the above depicted concentrations for the compounds stated are given in the following groups.

Structures are written as SMILES.

With `Cc1c(=O)n(C)c(Nc2ccc(I)cc2F)c2c(=O)[nH]c(=O)n(-c3cccc(CCC(N)=O)c3)c12` [Compound 1, 3-(3-(5-((2-fluoro-4-iodophenyl)amino)-6,8-dimethyl-2,4,7-trioxo-3,4,6,7-tetrahydropyrido[4,3-d]pyrimidin-1(2H)-yl)phenyl)propanamide], the IC80 lay in the range of 1 to 3 nM.

As to `Cc1c(=O)n(C)c(Nc2ccc(I)cc2F)c2c(=O)[nH]c(=O)n(-c3cccc(C(=O)N4CCC4)c3)c12` [Compound 3, 1-(3-(azetidine-1-carbonyl)phenyl)-5-((2-fluoro-4-iodophenyl)amino)-6,8-dimethylpyrido[4,3-d]pyrimidine-2,4,7(1H,3H,6H)-trione], the IC80 fell in the range of 1 to 3 nM.

For the molecule `Cc1c(=O)n(C)c(Nc2ccc(I)cc2F)c2c(=O)[nH]c(=O)n(-c3cccc(CC(=O)NC4CC4)c3)c12` [Compound 4, N-cyclopropyl-2-(3-(5-((2-fluoro-4-iodophenyl)amino)-6,8-dimethyl-2,4,7-trioxo-3,4,6,7-tetrahydropyrido[4,3-d]pyrimidin-1(2H)-yl)phenyl)acetamide], the IC80 is 1 to 3 nM.

Regarding `Cc1c(=O)n(C)c(Nc2ccc(I)cc2F)c2c(=O)[nH]c(=O)n(-c3cccc(OCC(=O)NC4CC4)c3)c12` [Compound 6, N-cyclopropyl-2-(3-(5-((2-fluoro-4-iodophenyl)amino)-6,8-dimethyl-2,4,7-trioxo-3,4,6,7-tetrahydropyrido[4,3-d]pyrimidin-1(2H)-yl)phenoxy)acetamide], the IC80 amounted to 0.01 nM.

With `Cc1c(=O)n(C)c(Nc2ccc(I)cc2F)c2c(=O)[nH]c(=O)n(-c3cccc(C(=O)N4CCOCC4)c3)c12` [Compound 7, 5-((2-fluoro-4-iodophenyl)amino)-6,8-dimethyl-1-(3-(morpholine-4-carbonyl)phenyl)pyrido[4,3-d]pyrimidine-2,4,7(1H,3H,6H)-trione], the IC80 fell in the range of 4 to 100 nM.

For `Cc1c(=O)n(C)c(Nc2ccc(I)cc2F)c2c(=O)[nH]c(=O)n(-c3cccc(C(=O)N4CCS(=O)(=O)CC4)c3)c12` [Compound 8, 1-(3-(1,1-dioxidothiomorpholine-4-carbonyl)phenyl)-5-((2-fluoro-4-iodophenyl)amino)-6,8-dimethylpyrido[4,3-d]pyrimidine-2,4,7(1H,3H,6H)-trione], the IC80 lay within 1 to 3 nM.

Regarding `Cc1c(=O)n(C)c(Nc2ccc(I)cc2F)c2c(=O)[nH]c(=O)n(-c3cccc(C(C)(C)C(N)=O)c3)c12` [Compound 9, 2-(3-(5-((2-fluoro-4-iodophenyl)amino)-6,8-dimethyl-2,4,7-trioxo-3,4,6,7-tetrahydropyrido[4,3-d]pyrimidin-1(2H)-yl)phenyl)-2-methylpropanamide], the IC80 lay in the range of 0.1 to 0.9 nM.

On to `Cc1c(=O)n(C)c(Nc2ccc(I)cc2F)c2c(=O)[nH]c(=O)n(-c3cccc(CC(=O)N(C)C)c3)c12` [Compound 10, 2-(3-(5-((2-fluoro-4-iodophenyl)amino)-6,8-dimethyl-2,4,7-trioxo-3,4,6,7-tetrahydropyrido[4,3-d]pyrimidin-1(2H)-yl)phenyl)-N,N-dimethylacetamide], for which the IC80 lay within 0.1 to 0.9 nM.

For the molecule `Cc1c(Nc2ccc(I)cc2F)c2c(=O)[nH]c(=O)n(-c3cccc(C(F)(F)C(N)=O)c3)c2n(C)c1=O` [Compound 11, 2,2-difluoro-2-(3-(5-((2-fluoro-4-iodophenyl)amino)-6,8-dimethyl-2,4,7-trioxo-3,4,7,8-tetrahydropyrido[2,3-d]pyrimidin-1(2H)-yl)phenyl)acetamide], the IC80 is 0.1 to 0.9 nM.

With `Cc1c(=O)n(C)c(Nc2ccc(I)cc2F)c2c(=O)[nH]c(=O)n(-c3cccc(C(=O)NC4(C(N)=O)CC4)c3)c12` [Compound 12, N-(1-carbamoylcyclopropyl)-3-(5-((2-fluoro-4-iodophenyl)amino)-6,8-dimethyl-2,4,7-trioxo-3,4,6,7-tetrahydropyrido[4,3-d]pyrimidin-1(2H)-yl)benzamide], the IC80 was in the range of 4 to 100 nM.

As to `Cc1c(=O)n(C)c(Nc2ccc(I)cc2F)c2c(=O)[nH]c(=O)n(-c3cccc(C(=O)NC4CCOCC4)c3)c12` [Compound 13, 3-(5-((2-fluoro-4-iodophenyl)amino)-6,8-dimethyl-2,4,7-trioxo-3,4,6,7-tetrahydropyrido[4,3-d]pyrimidin-1(2H)-yl)-N-(tetrahydro-2H-pyran-4-yl)benzamide], the IC80 was 0.01 nM.

Turning to `Cc1c(=O)n(C)c(Nc2ccc(I)cc2F)c2c(=O)[nH]c(=O)n(-c3cccc(C(O)C(N)=O)c3)c12` (stereo not shown) [Compound 14, 2-(3-(5-((2-fluoro-4-iodophenyl)amino)-6,8-dimethyl-2,4,7-trioxo-3,4,6,7-tetrahydropyrido[4,3-d]pyrimidin-1(2H)-yl)phenyl)-2-hydroxyacetamide], the IC80 was 4 to 100 nM.

On to `CNC(=O)CCc1cccc(-n2c(=O)[nH]c(=O)c3c(Nc4ccc(I)cc4F)n(C)c(=O)c(C)c32)c1` [Compound 15, 3-(3-(5-((2-fluoro-4-iodophenyl)amino)-6,8-dimethyl-2,4,7-trioxo-3,4,6,7-tetrahydropyrido[4,3-d]pyrimidin-1(2H)-yl)phenyl)-N-methylpropanamide], for which the IC80 fell in the range of 1 to 3 nM.

As to `Cc1c(=O)n(C)c(Nc2ccc(I)cc2F)c2c(=O)[nH]c(=O)n(-c3cccc(C(=O)N4CCS(=O)(=O)C4)c3)c12` [Compound 17, 1-(3-(1,1-dioxidothiazolidine-3-carbonyl)phenyl)-5-((2-fluoro-4-iodophenyl)amino)-6,8-dimethylpyrido[4,3-d]pyrimidine-2,4,7(1H,3H,6H)-trione], the IC80 is 0.1 to 0.9 nM.

In the case of `Cc1c(=O)n(C)c(Nc2ccc(I)cc2F)c2c(=O)[nH]c(=O)n(-c3cccc(C(=O)N4CCC(O)CC4)c3)c12` [Compound 18, 5((2-fluoro-4-iodophenyl)amino)-1-(3-(4-hydroxypiperidine-1-carbonyl)phenyl)-6,8-dimethylpyrido[4,3-d]pyrimidine-2,4,7(1H,3H,6H)-trione], the IC80 fell in the range of 4 to 100 nM.

On to `Cc1c(=O)n(C)c(Nc2ccc(I)cc2F)c2c(=O)[nH]c(=O)n(-c3cccc(CCC(=O)NC4CC4)c3)c12` [Compound 19, N-cyclopropyl-3-(3-(5-((2-fluoro-4-iodophenyl)amino)-6,8-dimethyl-2,4,7-trioxo-3,4,6,7-tetrahydropyrido[4,3-d]pyrimidin-1(2H)-yl)phenyl)propanamide], for which the IC80 was in the range of 4 to 100 nM.

For the molecule `Cc1c(=O)n(C)c(Nc2ccc(I)cc2F)c2c(=O)[nH]c(=O)n(-c3cccc(OC(C)(C)C(N)=O)c3)c12` [Compound 20, 2-(3-(5-((2-fluoro-4-iodophenyl)amino)-6,8-dimethyl-2,4,7-trioxo-3,4,6,7-tetrahydropyrido[4,3-d]pyrimidin-1(2H)-yl)phenoxy)-2-methylpropanamide], the IC80 was 1 to 3 nM.

Take `Cc1c(=O)n(C)c(Nc2ccc(I)cc2F)c2c(=O)[nH]c(=O)n(-c3cccc(C(=O)N4CCN(C)CC4)c3)c12` [Compound 21, 5-((2-fluoro-4-iodophenyl)amino)-6,8-dimethyl-1-(3-(4-methylpiperazine-1-carbonyl)phenyl)pyrido[4,3-d]pyrimidine-2,4,7(1H,3H,6H)-trione]: the IC80 was in the range of 0.1 to 0.9 nM.

For `Cc1c(=O)n(C)c(Nc2ccc(I)cc2F)c2c(=O)[nH]c(=O)n(-c3cccc(C(=O)N4CCC(O)C4)c3)c12` (stereo not shown) [Compound 22, 5-((2-fluoro-4-iodophenyl)amino)-1-(3-(3-hydroxypyrrolidine-1-carbonyl)phenyl)-6,8-dimethylpyrido[4,3-d]pyrimidine-2,4,7(1H,3H,6H)-trione], the IC80 was 4 to 100 nM.

As to `Cc1c(=O)n(C)c(Nc2ccc(I)cc2F)c2c(=O)[nH]c(=O)n(-c3cccc(C(=O)N4CCNCC4)c3)c12` [Compound 23, 5-((2-fluoro-4-iodophenyl)amino)-6,8-dimethyl-1-(3-(piperazine-1-carbonyl)phenyl)pyrido[4,3-d]pyrimidine-2,4,7(1H,3H,6H)-trione], the IC80 was in the range of 4 to 100 nM.

Regarding `Cc1c(=O)n(C)c(Nc2ccc(I)cc2F)c2c(=O)n(C3CC3)c(=O)n(-c3cccc(C(=O)N4CCC4)c3)c12` [Compound 24, 1-(3-(azetidine-1-carbonyl)phenyl)-3-cyclopropyl-5-((2-fluoro-4-iodophenyl)amino)-6,8-dimethylpyrido[4,3-d]pyrimidine-2,4,7(1H,3H,6H)-trione], the IC80 lay within 0.1 to 0.9 nM.

As for `Cc1c(=O)n(C)c(Nc2ccc(I)cc2F)c2c(=O)n(C3CC3)c(=O)n(-c3cccc(OCC(=O)NC4CC4)c3)c12` [Compound 25, N-cyclopropyl-2-(3-(3-cyclopropyl-5-((2-fluoro-4-iodophenyl)amino)-6,8-dimethyl-2,4,7-trioxo-3,4,6,7-tetrahydropyrido[4,3-d]pyrimidin-1(2H)-yl)phenoxy)acetamide], the IC80 lay within 0.1 to 0.9 nM.

With `Cc1c(=O)n(C)c(Nc2ccc(I)cc2F)c2c(=O)n(C3CC3)c(=O)n(-c3cccc(CC(N)=O)c3)c12` [Compound 26, 2-(3-(3-cyclopropyl-5-((2-fluoro-4-iodophenyl)amino)-6,8-dimethyl-2,4,7-trioxo-3,4,6,7-tetrahydropyrido[4,3-d]pyrimidin-1(2H)-yl)phenyl)acetamide], the IC80 was 4 to 100 nM.

As for `Cc1c(=O)n(C)c(Nc2ccc(I)cc2F)c2c(=O)n(C3CC3)c(=O)n(-c3cccc(C(=O)N4CCCC4)c3)c12` [Compound 27, 3-cyclopropyl-5-((2-fluoro-4-iodophenyl)amino)-6,8-dimethyl-1-(3-(pyrrolidine-1-carbonyl)phenyl)pyrido[4,3-d]pyrimidine-2,4,7(1H,3H,6H)-trione], the IC80 fell in the range of 1 to 3 nM.

`Cc1c(=O)n(C)c(Nc2ccc(I)cc2F)c2c(=O)n(C3CC3)c(=O)n(-c3cccc(C(C)(C)C(N)=O)c3)c12` [Compound 28, 2-(3-(3-cyclopropyl-5-((2-fluoro-4-iodophenyl)amino)-6,8-dimethyl-2,4,7-trioxo-3,4,6,7-tetrahydropyrido[4,3-d]pyrimidin-1(2H)-yl)phenyl)-2-methylpropanamide]: the IC80 fell in the range of 0.1 to 0.9 nM.
